Data from the OligoGym collection.
“And” between values parts separate entries of the source, which are not always exact repeats. Equal values may be shown once. After the bases stand the sugars from the 5' end (letter, count) and the backbone: PS all phosphorothioate, else s phosphorothioate and o phosphodiester by linkage. Methylation of C is not given here. e = 2'-O-(2-methoxyethyl) (MOE); k = constrained ethyl (cEt); d = 2'-deoxy (DNA)

Assays:
SOD1 = settings: ASO
APOL1 = settings: ASO

## AAACTATACAAATCTTC (sugars e2 k2 d8 k2 e3, PS)
SOD1; HepG2, 5 µM
  target mRNA inhibition: 55%

## AAAGTCACACAATTACACTT (sugars e5 d10 e5, PS)
SOD1; HepG2, 5 µM
  target mRNA inhibition: 15%

## AAAGTGAGGACCTGCAC (sugars e3 k2 d7 k2 e3, PS)
SOD1; HepG2, 3 µM
  target mRNA inhibition: 20%

## AAATACAGGTCATTGAA (sugars e2 k2 d9 k2 e2, PS)
SOD1; HepG2, 5 µM
  target mRNA inhibition: 47%

## AAATCAGTTTCTCACTACAG (sugars e5 d10 e5, PS)
SOD1; HepG2, 5 µM
  target mRNA inhibition: 0%

## AAATTGATGATGCCCTGCAC (sugars e5 d10 e5, PS)
SOD1; HepG2, 4 µM
  target mRNA inhibition: 14%

## AACAGATGAGTTAAGGG (sugars e2 k2 d9 k2 e2, PS)
SOD1; HepG2, 0.1875 µM
  target mRNA inhibition: 27%
SOD1; HepG2, 0.75 µM
  target mRNA inhibition: 49%
SOD1; HepG2, 3 µM
  target mRNA inhibition: 82%
SOD1; HepG2, 4 µM
  target mRNA inhibition: 86% and 82%
SOD1; HepG2, 12 µM
  target mRNA inhibition: 89% and 92%

## AACATGCCTCTCTTCAT (sugars e3 k2 d7 k2 e3, PS)
SOD1; HepG2, 3 µM
  target mRNA inhibition: 13%

## AACTATACAAATCTTCC (sugars e2 k2 d9 k2 e2, PS)
SOD1; HepG2, 5 µM
  target mRNA inhibition: 63%

## TCAGATGGGTACTTCT (sugars k4 d9 k3, PS)
APOL1; A431, 0.0625 µM
  target mRNA inhibition: 38%
APOL1; A431, 0.25 µM
  target mRNA inhibition: 66%
APOL1; A431, 1 µM
  target mRNA inhibition: 83%

## TCAGATGGGTACTTCT (sugars kkkddddkekekdddd, PS)
APOL1; A431, 2 µM
  target mRNA inhibition: 50%

## TCAGCTAAGACCAGTG (sugars k4 d9 k3, PS)
APOL1; A431, 0.0625 µM
  target mRNA inhibition: 53%
APOL1; A431, 0.25 µM
  target mRNA inhibition: 78%
APOL1; A431, 1 µM
  target mRNA inhibition: 89%

## TCAGCTATGGAAATGC (sugars k4 d9 k3, PS)
APOL1; A431, 0.0625 µM
  target mRNA inhibition: 45%
APOL1; A431, 0.25 µM
  target mRNA inhibition: 78%
APOL1; A431, 1 µM
  target mRNA inhibition: 92%

## TCATAGATACTCCTCA (sugars k3 d10 k3, PS)
APOL1; A431, 0.0156 µM
  target mRNA inhibition: 8%
APOL1; A431, 0.0625 µM
  target mRNA inhibition: 17%
APOL1; A431, 0.25 µM
  target mRNA inhibition: 51%
APOL1; A431, 1 µM
  target mRNA inhibition: 80%

## TCATCATAGATACTCC (sugars k4 d9 k3, PS)
APOL1; A431, 0.0625 µM
  target mRNA inhibition: 33%
APOL1; A431, 0.25 µM
  target mRNA inhibition: 67%
APOL1; A431, 1 µM
  target mRNA inhibition: 84%

## TCATTAGTGCTATAGA (sugars k4 d9 k3, PS)
APOL1; A431, 0.0625 µM
  target mRNA inhibition: 25%
APOL1; A431, 0.25 µM
  target mRNA inhibition: 71%
APOL1; A431, 1 µM
  target mRNA inhibition: 86%

## TCCAGATGTGTTTAGG (sugars k4 d9 k3, PS)
APOL1; A431, 0.0625 µM
  target mRNA inhibition: 82%
APOL1; A431, 0.25 µM
  target mRNA inhibition: 89%
APOL1; A431, 1 µM
  target mRNA inhibition: 94%

## TCCGTCAATATATTCT (sugars k3 d10 k3, PS)
APOL1; A431, 0.0625 µM
  target mRNA inhibition: 83%
APOL1; A431, 0.25 µM
  target mRNA inhibition: 96%
APOL1; A431, 1 µM
  target mRNA inhibition: 98%

## TCCGTCAATATATTCT (sugars kkddddkekekddddd, PS)
APOL1; A431, 2 µM
  target mRNA inhibition: 94%

## TCCGTCAATATATTCT (sugars kkkddddkekekdddd, PS)
APOL1; A431, 0.0156 µM
  target mRNA inhibition: 30%
APOL1; A431, 0.04 µM
  target mRNA inhibition: 50%
APOL1; A431, 0.0625 µM
  target mRNA inhibition: 57%
APOL1; A431, 0.25 µM
  target mRNA inhibition: 84%
APOL1; A431, 1 µM
  target mRNA inhibition: 94%
APOL1; A431, 2 µM
  target mRNA inhibition: 95%

## TCCGTTCCAGGCCTCA (sugars k4 d9 k3, PS)
APOL1; A431, 0.0625 µM
  target mRNA inhibition: 29%
APOL1; A431, 0.25 µM
  target mRNA inhibition: 44%
APOL1; A431, 1 µM
  target mRNA inhibition: 58%

## TCCTGGGCGGCGACAA (sugars k4 d9 k3, PS)
APOL1; A431, 0.0625 µM
  target mRNA inhibition: 46%
APOL1; A431, 0.25 µM
  target mRNA inhibition: 74%
APOL1; A431, 1 µM
  target mRNA inhibition: 85%

## TCTATTAGAGGGCTAG (sugars k3 d4 k3 e1 d5, PS)
APOL1; A431, 2 µM
  target mRNA inhibition: 51%

## TCTATTAGAGGGCTAG (sugars kkdddddkekeddddd, PS)
APOL1; A431, 2 µM
  target mRNA inhibition: 72%

## TCTATTAGAGGGCTAG (sugars kkddddkdkdkddddd, PS)
APOL1; A431, 2 µM
  target mRNA inhibition: 68%

## TCTATTAGAGGGCTAG (sugars kkddddkekekddddd, PS)
APOL1; A431, 2 µM
  target mRNA inhibition: 52%

## TCTATTAGAGGGCTAG (sugars kkddddkekekkdddd, PS)
APOL1; A431, 2 µM
  target mRNA inhibition: 25%

## TGGGAATTATGGAATT (sugars kkddddkekekddddd, PS)
APOL1; A431, 2 µM
  target mRNA inhibition: 87%

## TGGGTCAAAAGCGATG (sugars k4 d9 k3, PS)
APOL1; A431, 0.0625 µM
  target mRNA inhibition: 25%
APOL1; A431, 0.25 µM
  target mRNA inhibition: 54%
APOL1; A431, 1 µM
  target mRNA inhibition: 77%

## TGGTTCAAAAGCAGCA (sugars kkddddekekeddddd, PS)
APOL1; A431, 2 µM
  target mRNA inhibition: 82%

## TGGTTCAAAAGCAGCA (sugars kkddddkekekddddd, PS)
APOL1; A431, 2 µM
  target mRNA inhibition: 68%

## TGGTTCAAAAGCAGCA (sugars kkkddddkekekdddd, PS)
APOL1; A431, 2 µM
  target mRNA inhibition: 57%

## TGTAAGTGCAACCAAT (sugars kdddddkekekddddd, PS)
APOL1; A431, 2 µM
  target mRNA inhibition: 81%

## TGTATTTCTTGATGTG (sugars k2 d4 e3 k2 d5, PS)
APOL1; A431, 2 µM
  target mRNA inhibition: 87%

## TGTTATATTTGATCCT (sugars k2 d4 e3 k2 d5, PS)
APOL1; A431, 2 µM
  target mRNA inhibition: 87%

## TGTTATATTTGATCCT (sugars kekddddeekkddddd, PS)
APOL1; A431, 0.0156 µM
  target mRNA inhibition: 31%
APOL1; A431, 0.0625 µM
  target mRNA inhibition: 40%
APOL1; A431, 0.25 µM
  target mRNA inhibition: 70%
APOL1; A431, 1 µM
  target mRNA inhibition: 89%
APOL1; A431, 2 µM
  target mRNA inhibition: 94%
